Data published in paper PMC4207450, “Aurones: A Promising Heterocyclic Scaffold for the Development of Potent Antileishmanial Agents” (International Journal of Medicinal Chemistry, 2012).
Like-named read-outs stand apart in the source and are kept apart here.

How the values were obtained:
[1] = system: L. infantum intracellular amastigotes; assay: Growth inhibition of luciferase-expressing L. infantum intracellular amastigotes in THP1-differentiated macrophages; assay type: cell-based, Leishmania infantum; conditions: for IC50: Leishmania infantum, Macrophage, 72 h incubation, luciferase activity, infected THP1-differentiated macrophages
Description: A cloned line of L. infantum (MOM/MA671 TMAP263) promastigotes, stably expressing the luciferase gene (LUC), was grown in RPMI 1640 medium (Bio Whitaker, Belgium) supplemented with 10% heat-inactivated fetal bovine serum (FBS) (Bio Whitaker, Belgium), 2 mML-glutamine (Bio Whitaker, Belgium), 20 mM Hepes (Bio Whitaker, Belgium), 100 U/mL penicillin, and 100 μg/mL streptomycin (Bio Whitaker, Belgium). Selection of LUC positive parasites was done by adding geneticin-sulphate (Sigma-Aldrich, USA) to the culture media at a final concentration of 5 μg/mL. Parasites were maintained in culture, at 26°C by subpassage ([…]) at every 5 days.
L. infantum axenic amastigotes, stably expressing the LUC gene were derived from promastigotes by culturing them in MAA (Medium for Axenic Amastigotes) culture medium. MAA consisted of a modified medium 199 with Hanks balanced salt solution (Gibco-Invitrogen, Spain) supplemented with 0.5% soya broth trypto-casein (Bio-Rad, UK), 15 mM D-glucose (Panreac, Spain), 4 mM NaHCO3 (Sigma-Aldrich, USA). The pH was adjusted to 5.8, and the media was 0.2 μm sterilized by filtration and further supplemented with 0.023 mM bovine hemin (Fluka, USA), 5 mM L-glutamine, and 25% of heat inactivated FBS. Amastigotes were maintained in culture, at 37°C in an atmosphere containing 5% CO2 by subpassage (10^5 parasites/mL), at every 5 days.
THP1-differentiated macrophages were infected for a period of 4 h with stationary phase LUC expressing, L. infantum axenic amastigotes, at a 5 : 1 parasite to cell ratio. After the infection period, cells were washed with culture media to remove noninternalized parasites. Serial dilutions of the aurones, ranging from 50 to 0.78 μM in culture media, were added to the wells, in quadruplicate, and incubated for 72 h at 37°C, 5% CO2. After the incubation period, the luciferase activity of intracellular amastigotes was determined as described before. The percentage of growth inhibition was calculated as described above.

[2] = system: THP1-differentiated macrophages; assay: Toxicity of aurones on THP1-differentiated macrophages (MTT assay); assay type: cell-based, human; conditions: for IC50: Homo sapiens, Macrophage, 72 h incubation, MTT assay, cytotoxicity; for toxicity to mammalian (THP1) cells, in words: THP1-differentiated macrophages
Description: The human leukaemia monocyte THP1 cell line was cultured as a monolayer at 37°C in a humidified atmosphere containing 5% CO2. Cells were grown in RPMI 1640 medium, supplemented with 10% heat-inactivated FBS, 2 mM L-glutamine, 100 U/mL penicillin, and 100 μg/mL streptomycin, and were maintained in culture, by subpassage every 3 days.
For macrophage differentiation, human leukaemia monocyte cell line (THP-1 cells) cells were incubated in the presence of 20 ng/ml phorbol 12-myristate 13-acetate (PMA, Sigma-Aldrich) for 18 h at 37°C, 5% CO2, and left another 24 h with fresh medium containing no PMA to induce maturation. Serial dilutions of each aurone, ranging from 100 to 1.56 μM in culture media, were added to the wells, in quadruplicate, and incubated for 72 h at 37°C, 5% CO2. Cell viability was assessed by the MTT assay, as described before.
The IC50 value, that is, the concentration of the aurone necessary to decrease cell viability to 50% of the untreated control, was determined by linear regression analysis.

[3] = ratio of IC50 on THP1-differentiated macrophages to IC50 on intracellular parasite

| Compound | IC50 [1] | Selectivity index (SI) [1, 3] | IC50 [2] | toxicity to mammalian (THP1) cells, in words [2] | Selectivity index (SI) [1] | melting point |
| --- | --- | --- | --- | --- | --- | --- |
| COc1cccc(/C=C2\Oc3ccccc3C2=O)c1 [Compound 4e] | 4.7 ± 0.5 µM | 11.5 | 54.2 ± 7.3 µM | did not show significant toxicity | – | – |
| COc1ccc(/C=C2\Oc3cc(OC)cc(OC)c3C2=O)cc1 [Compound 4h] | – | – | 19.6 ± 2.5 µM | – | – | – |
| C[C@@H]1[C@H](O)[C@@H](C)/C=C/C=C/C=C/C=C/C=C/C=C/C=C/[C@H](O[C@@H]2O[C@H](C)[C@@H](O)[C@H](N)[C@@H]2O)C[C@@H]2O[C@](O)(C[C@@H](O)C[C@@H](O)[C@H](O)CC[C@@H](O)C[C@@H](O)CC(=O)O[C@H]1C)C[C@H](O)[C@H]2C(=O)O [Amphotericin B, reference compound] | 1.2 ± 0.1 µM | – | 23.8 ± 2.3 µM | – | 20.6 | – |
| COc1ccc(/C=C2\Oc3ccccc3C2=O)cc1OC [Compound 4f] | – | – | 20.5 ± 1.2 µM | – | – | – |
| COc1cc(OC)c2c(c1)O/C(=C\c1ccccc1OC)C2=O [Compound 4i, 2′,4,6-trimethoxyaurone] | 1.3 ± 0.1 µM | 57.5 | 75.4 ± 4.7 µM | – | – | – |
| COc1ccccc1/C=C1\Oc2ccccc2C1=O [Compound 4d] | – | – | 17.5 ± 3.1 µM | – | – | – |
| COc1cc(OC)c2c(c1)O/C(=C\c1ccccc1Cl)C2=O [Compound 4k, 4,6-Dimethoxy-2′-chloro-aurone] | 12.2 ± 1.4 µM | >8.2 | > 100 µM | not toxic to mammalian cells | – | 191 to 193 °C |
| COc1ccc(/C=C2\Oc3ccccc3C2=O)cc1 [Compound 4a] | – | – | 16.5 ± 3.1 µM | – | – | – |
| COc1cc(OC)c2c(c1)O/C(=C\c1ccccc1C)C2=O [Compound 4j, 4,6-Dimethoxy-2′-methylaurone] | 1.6 ± 0.2 µM | 43.4 | 68.1 ± 2.1 µM | – | – | 180 to 183 °C |
| O=C1/C(=C/c2ccc(Cl)cc2)Oc2ccccc21 [Compound 4c] | – | – | 14.5 ± 2.1 µM | – | – | – |
| COc1cc(OC)c2c(c1)O/C(=C\c1ccccc1)C2=O [Compound 4l, 4,6-Dimethoxyaurone] | 2.1 ± 0.9 µM | 26.9 | 57.5 ± 3.4 µM | – | – | 139 to 142 °C |
| Cc1ccc(/C=C2\Oc3ccccc3C2=O)cc1 [Compound 4b] | – | – | 8.5 ± 0.8 µM | – | – | – |
